Laboratory results taken from PubChem BioAssay (NCI).
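These data come from cells grown in 96-well plates and exposed to compound for 48 hours at five concentrations. Abbreviation: GI50, concentration required for 50% inhibition of growth. TGI: concentration producing complete growth inhibition.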

How the values were obtained:
Experiment in all cases: NCI anticancer screen, dose series, 48 h
SF-539 CNS = tested on: SF-539 CNS
MCF7 breast = tested on: MCF7 breast
COLO 205 colon = tested on: COLO 205 colon
HT29 colon = tested on: HT29 colon
OVCAR-8 ovarian = tested on: OVCAR-8 ovarian
UACC-257 melanoma = tested on: UACC-257 melanoma
HOP-62 NSCLC = tested on: HOP-62 NSCLC
U251 CNS = tested on: U251 CNS
HCT-116 colon = tested on: HCT-116 colon
NCI-H226 lung = tested on: NCI-H226 lung

Compound	TGI (SF-539 CNS) [µM]	TGI (MCF7 breast) [µM]	TGI (COLO 205 colon) [µM]	TGI (HT29 colon) [µM]	TGI (OVCAR-8 ovarian) [µM]	TGI (UACC-257 melanoma) [µM]	TGI (HOP-62 NSCLC) [µM]	TGI (U251 CNS) [µM]	TGI (HCT-116 colon) [µM]	TGI (NCI-H226 lung) [µM]	GI50 (SF-539 CNS) [µM]	GI50 (MCF7 breast) [µM]	GI50 (COLO 205 colon) [µM]	GI50 (HT29 colon) [µM]	GI50 (OVCAR-8 ovarian) [µM]	GI50 (UACC-257 melanoma) [µM]	GI50 (U251 CNS) [µM]	GI50 (HCT-116 colon) [µM]	GI50 (HOP-62 NSCLC) [µM]	GI50 (NCI-H226 lung) [µM]
Cc1cc(=O)oc2c(C)c(O)ccc12	> 100	> 100	> 100	> 100	> 100	> 100	> 100	> 100	> 100	> 100										
COC(=O)CC[C@]1(C)O[C@H]2[C@H]([C@@H](C)CCCC(C)=O)OC(=O)[C@@H]2C[C@H]1O	> 100	> 100	> 100	> 100	> 100	> 100		> 100	> 100		84.9	> 100	> 100	> 100	> 100	44.9	> 100	> 100		
C=C(C#N)C1OCC2OC(C)(C)OC21 (stereo unspecified)	30		30.3	> 100	48.7	30	> 100	> 100	38.4											
COc1ccc(/C(=N\NC(=O)C(=O)NN)C(c2ccc(OC)cc2)C2(O)C(=O)Nc3ccccc32)cc1 (stereo unspecified)	> 100		> 100	> 100	> 100		> 100	> 100	> 100	> 100										
COc1ccc(NC([Se])=NC23CC4CC(CC(C4)C2)C3)cc1	4.19	9.4	3.95	15	3.71	5.44	9.49	4.91	2.78	5.26	1.89	1.57	1.66	2.64	0.645	2.03	1.27	1.28	2.24	1.25
NC(=O)CCC(Nc1c2ccccc2nc2ccccc12)C(=O)O (stereo unspecified)	> 100		> 100	> 100	> 100	> 100		> 100	> 100	> 100										
COc1ccc2c3c([nH]c2c1[N+](=O)[O-])C(C)N(Cc1ccc([N+](=O)[O-])cc1)CC3 (stereo unspecified)	> 100		35.8	35.3	64.4	61.5		46.9		42.4										
C=C1C(=O)OC2C1CCC(C)C1C=CC(=O)C12C (stereo unspecified)	8.33	16.5	5.74	4.53		4.61	41.1	29.5	3.91	13										
O=C(Nc1ccc(Cl)cc1Cl)C1C(=O)C(=O)N(c2ccc(Cl)cc2Cl)C1=O (stereo unspecified)	> 100			> 100	> 100	> 100	> 100	> 100	> 100	84.1										
C#CCOCn1cnc2c(Sc3c([N+](=O)[O-])ncn3C)ncnc21			> 100	> 100	> 100	> 100	> 100	> 100		> 100										
CCOC(=O)/C(=C\c1ccc(N(CCC#N)CCC#N)cc1)NC(=O)c1cc([N+](=O)[O-])ccc1Cl	> 100		> 100	> 100	> 100	> 100	> 100	> 100	> 100	> 100										
Nc1c2c(c(O)c3c1=C(CO)C=N3)=NCCS2	0.301		0.146	0.37	0.88	0.288	0.317	0.329	0.524	0.471	0.165		0.0397	0.0794	0.307	0.142	0.18	0.223	0.175	0.199
CC1=C[C@]2(O)C(=O)[C@H](C)C[C@H]3[C@@H](CC[C@@](C)(O)/C=C\2C1=O)C3(C)C	46.8		30.6	> 71.6	46.9	35.7	> 70.3	52.7	30.9	> 79.5										
Cn1nc(-c2ccccc2)c(C(=O)/C=C/c2ccc(Cl)cc2)c(N2CCCCC2)c1=O	2.98		4.35	6.9	16.5		5.68	3.82	3.47											
CC(=O)c1cccc(C)c1C(=O)O			> 100	> 100	> 100	> 100	> 100	> 100	> 100	> 100										
CCOc1ccc(N=Cc2ccc3cc(C)ccc3n2)cc1	> 100		> 100	> 100	> 100	> 100	> 100	> 100		> 100										
O=C(O)c1ccc(Oc2nccc(-c3c(-c4ccc(F)cc4)ncn3C3CCNCC3)n2)cc1	> 25	> 25	> 25	> 25	> 25		> 25	> 25	> 25		> 25	> 25	> 25	> 25	> 25		> 25	> 25	> 25	
O=C1C=CC(=O)C12CCc1ccccc12	> 100		> 100	> 100	> 100	> 100	> 100	> 100	> 100	> 100										
NC1CCC(Nc2nc(NCc3ccc(-c4ccccc4O)nc3)c3ncn(C4CCCC4)c3n2)CC1 (stereo unspecified)	0.267		0.0278	0.21		0.0729	0.0666	0.321	1.15	0.404	0.0625		0.012	< 0.01		0.0227	0.0294	0.0317	0.0157	0.0486
